The text below walks through data of US11407729B2, “Quinoline and quinazoline compounds and methods of use thereof” (Stingray Therapeutics, Inc., priority 2019, dated 2022).

In experiment [1] the target is T1, ENPP1 protein (Homo sapiens, UniProt P22413).
T1 sequence (P22413 1-925): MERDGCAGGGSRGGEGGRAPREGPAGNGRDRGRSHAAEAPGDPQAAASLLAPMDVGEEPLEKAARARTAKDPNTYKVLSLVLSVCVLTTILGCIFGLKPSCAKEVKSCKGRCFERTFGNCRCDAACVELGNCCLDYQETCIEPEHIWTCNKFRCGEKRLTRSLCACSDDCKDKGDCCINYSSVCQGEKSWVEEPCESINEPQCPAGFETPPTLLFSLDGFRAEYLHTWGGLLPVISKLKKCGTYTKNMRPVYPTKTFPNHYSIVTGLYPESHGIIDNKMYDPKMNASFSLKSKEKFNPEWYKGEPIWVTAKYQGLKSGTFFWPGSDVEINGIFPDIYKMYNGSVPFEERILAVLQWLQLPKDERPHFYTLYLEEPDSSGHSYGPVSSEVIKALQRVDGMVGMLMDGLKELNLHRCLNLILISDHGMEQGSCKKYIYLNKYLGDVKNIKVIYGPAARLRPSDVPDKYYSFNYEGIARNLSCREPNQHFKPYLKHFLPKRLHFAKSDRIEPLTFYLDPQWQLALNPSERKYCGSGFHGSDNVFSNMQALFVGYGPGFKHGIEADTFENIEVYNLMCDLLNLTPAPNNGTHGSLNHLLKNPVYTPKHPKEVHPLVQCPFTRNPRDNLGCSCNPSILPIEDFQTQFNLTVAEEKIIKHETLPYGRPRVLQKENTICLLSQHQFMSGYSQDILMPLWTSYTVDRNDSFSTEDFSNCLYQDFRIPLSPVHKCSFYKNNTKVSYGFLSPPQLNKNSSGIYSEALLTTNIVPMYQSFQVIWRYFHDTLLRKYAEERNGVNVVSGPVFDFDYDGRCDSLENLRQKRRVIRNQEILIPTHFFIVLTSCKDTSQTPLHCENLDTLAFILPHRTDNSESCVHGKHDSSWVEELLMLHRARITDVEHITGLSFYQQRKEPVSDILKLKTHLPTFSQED
The experiment is described as follows: Thermal Shift Binding Assay. Particulars: 1 μg of ENPP1 protein incubated with 100 μM of drug for 5 minutes; for ΔTm at 100 µM: read-out: Thermal Shift (Δ TmD). The protocol:
Thermal Shift Binding Assay.
The Thermal Shift Assays were implemented to study thermal stabilization of ENPP1 proteins upon ENPP1 inhibitor or ligand binding. These assays were used extensively on purified ENPP1 protein. In a 384-well plate, 1 μg of ENPP1 protein was incubated with 100 μM of the corresponding drug for 5 minutes. Each well was exposed to increasing temperatures to determine an unfolding temperature of the protein. […] 2′3′ cGAMP was used as a positive control, as it is a substrate of ENPP1.

The target in experiment [2] is T1, ENPP1 protein. The experiment is described as follows: ENPP1 Inhibition Assay. Also noted: purchased R&D 6136-EN-010. It is filed as biochemical. The conditions noted are these: substrate Thymidine 5′-monophosphate p-nitrophenol ester; 37° C. for 45 minutes; absorbance at 405 nm. As to the method:
1. ENPP1 Inhibition Assay
An eight point serial dilution of drugs was prepared in 10× in assay buffer with the final assay concentrations starting at 10 μM, 3 μM, 1 μM, 0.3 μM . . . 0 μM. A dilution of DMSO was included as a control. The assay plate was set up as follows with each well in duplicate: 81 μL assay buffer+10 μL ENPP1 inhibitor or DMSO+5 μL Substrate+4 μL Enzyme. Both the enzyme and substrate were added to opposite sides of the well to ensure that there was no interaction until all wells had both components. The plate was then centrifuged gently for 10 seconds, followed by an incubation at 37° C. for 45 minutes.
IC50 values are determined using GraphPad Prism 5 software. The data were entered as an X-Y plot into the software as percent inhibition for each concentration of the drug. The concentration values of the drug were log transformed and the nonlinear regression was carried out using the “sigmoidal dose-response (variable slope)” option within the GraphPad software to model the data and calculate IC50 values.

Take `COc1cc2nccc(N3CCC(C(C)CNS(N)(=O)=O)CC3)c2cc1N1CCOCC1` (stereo not shown) [Compound I-12]: the ΔTm at 100 µM at ENPP1 protein [1] amounted to 3.6 °C. Besides, at ENPP1 protein [2], the IC50 is 835 nM.

As for “N-(2-(1-(6,7-dimethoxyquinolin-4-yl)piperidin-4-yl)propyl)sulfamoylcarbamate [Compound I-02]”, the “Thermal Shift (Δ TmD)” value at ENPP1 protein [1] is given as 5.0. In addition, the IC50 against ENPP1 protein [2] was 5.95 nM.

Turning to “N-(2-(1-(6,7-dimethoxyquinazolin-4-yl)piperidin-4-yl)propyl)sulfonamide urea [Compound I-01]”, at ENPP1 protein [1], the “Thermal Shift (Δ TmD)” value was determined as 5.5. For the same molecule, the IC50 against ENPP1 protein [2] was 2.79 nM.

In the case of `COc1ccc(OC)c(S(=O)(=O)Nc2cnc3ccccc3c2)c1` [Compound I-06, 2,5-dimethoxy-N-(quinolin-3-yl)benzenesulfonamide], at ENPP1 protein [1], the ΔTm at 100 µM came out at 1.6 °C. Moreover, on ENPP1 protein [2], the IC50 was found to be 5150 nM.

Turning to `CCC(CNS(N)(=O)=O)C1CCN(c2ccnc3cc(OC)c(OC)cc23)CC1` (stereo not shown) [Compound I-13, N-(2-(1-(6,7-dimethoxyquinolin-4-yl)piperidin-4-yl)butyl)sulfuricdiamide], the ΔTm at 100 µM at ENPP1 protein [1] is 4 °C. The molecule also registered an IC50 at ENPP1 protein [2] of 4.55 nM.
